From US20150283237A1, “CTLA-4 BLOCKADE WITH METRONOMIC CHEMOTHERAPY FOR THE TREATMENT OF CANCER” (priority 2014, published 2015)
Counter-ions that a name gives are not always drawn.

Legend:
EMT-6/P tumors = assay: Growth and event-free survival of subcutaneously implanted EMT-6/P tumors in BALB/c mice; type: in vivo, mouse; details: first experiment, FIG. 1A; s.c. EMT-6/P tumors in BALB/c mice, therapy from 50 mm3
Procedure: The combination of CTLA-4 blockade with metronomic chemotherapy regimens was evaluated. Murine EMT-6 breast tumor cells were subcutaneously implanted into syngeneic BALB/c mice (n=6-8/group) and therapies on the established tumors were evaluated. Murine CTLA-4 blockade was achieved using anti-mouse CD152 (CTLA-4), clone 9H10, injected on day 1 (100 μg/mouse) and on day 6 (35 μg/mouse) of therapy. Anti-CTLA-4 therapy was administered alone or combined with metronomic regimens. These included: (a) bolus (150 mg/kg, i.p.) CTX followed by metronomic CTX (20 mg/kg/day, p.o.), (b) metronomic CTX, and (c) sequential gemcitabine therapy (160 mg/kg every 3 days, i.p.) given when the tumors relapsed after the anti-CTLA-4 therapy.
Anti-CTLA-4 therapy combined with bolus plus low-dose CTX. To evaluate whether metronomic CTX regimens could be combined effectively with an anti-CTLA-4 treatment, a combination regimen was tested on subcutaneously implanted EMT-6/P tumors (FIG. 1A). For the chemotherapy component, a bolus with low dose CTX protocol consisting of a bolus of CTX (given on day 1 as a 150 mg/kg, i.p. injection) plus low-dose CTX (20 mg/kg/day, p.o., from day 1) was used. […]
Mice were monitored twice weekly for tumor growth, as measured using Vernier calipers, and calculated using the formula (length×width)/2, and for fluctuations in body weight. […]

[1] = mouse, in vivo
Source text: To assess the relative toxicity of the therapies, body weights of the mice over the course of the experiment was monitored, as in the previous studies (du Manoir et al., Clin Cancer Res., 2006, 12:904-16; Francia et al., Mol Cancer Ther., 2012, 11:680-89).
Mice were monitored twice weekly for tumor growth, as measured using Vernier calipers, and calculated using the formula (length×width)/2, and for fluctuations in body weight. Institutional guidelines were followed to determine when the experimental end points were reached. Results were also plotted as event-free survival (Kaplan-Meier analysis) over time, where the duration of event-free survival was defined as time to primary tumor progression beyond 1,200 mm3 or >15% weight loss, as in the previous study (du Manoir et al., Clin Cancer Res., 2006, 12, 904-16).

Row | SMILES | impact of therapy on tumor growth (EMT-6/P tumors) | body weight change / toxicity [1]
1 | O=P1(N(CCCl)CCCl)NCCCO1 (centres unmarked) [bolus with low dose CTX, Cyclophosphamide] | minimal reduction in tumor growth | –
2 | Nc1ccn([C@@H]2O[C@H](CO)[C@@H](O)C2(F)F)c(=O)n1 [gemcitabine, Gemcitabine hydrochloride] | – | slight weight drop
